How the values were obtained:
[1] = Dynamic vapor sorption (DVS) moisture sorption isotherm; type: physicochemical; settings: for solid form after DVS (XRPD): XRPD of post-DVS sample
Procedure: Samples were analyzed using a TA Instruments Q5000SA gravimetric water sorption analyzer. The weight of the sample was continuously monitored and recorded with respect to the relative humidity (RH) and time. Samples of 5-10 mg were placed in a tared, hermetically sealed aluminum DVS pan under ambient conditions. The sample pan was punctured prior to being loaded into the humidity chamber. A moisture sorption isotherm was performed at 25° C. at 10% RH intervals over a 0-90% RH range. Three cycles were carried out. If the mass gain or loss on a sorption step was less than 0.1% over 15 minutes, the next humidity interval would begin. If weight continued to change after 120 minutes at a given step, the step would time out and proceed to the next humidity interval.

[2] = Stability of Form 1 under stressed conditions (XRPD, UPLC purity, KF water content); type: physicochemical; settings: for Purity (Week 1): week 1, UPLC; for Purity (Week 4): week 4, UPLC; for Water content (Week 5): week 5, KF
Procedure: X-ray powder diffraction patterns were obtained using a Bruker D8 equipped with a Cu Kα radiation (40 kV, 40 mA) source (λ=1.54°A), a 9-position sample holder, and a θ-2θ goniometer fitted with a Ge monochromator. The incident beam passes through a 2.0 mm divergence slit followed by a 0.2 mm antiscatter slit. The diffracted beam passes through an 8.0 mm receiving slit with 2.5° Soller slits followed by a LYNXEYE super speed detector. Samples were prepared on polished, zero-background silicon plates and run using a low background, airtight specimen dome.
A Mettler Toledo DL39 Coulometric KF Titrator was used to determine the apparent water content in samples. About 90-100 mg of the solid was used for titration. To limit the exposure of the solution to the air, the titrator opening was closed by a stopper immediately after adding samples. HYDRANAL-Coulomat AD was used as the titrant added at 40% speed. The mixing time used was 30 seconds prior to analysis.
The purity of the sample was determined using the method provided by the Analytical Development at JM. Data were collected using an Agilent […] Series UPLC system and analyzed using Chemstation software.
Form 1 solids were stored in 40° C./75% RH or 30° C./65% RH conditions. The XRPD and UPLC purity were measured at week 1 and week 4 time points. […] Additionally, water content was measured by KF at Week 5.

In the case of `CNS(=O)(=O)Nc1nccc(Cc2c(C)c3ccc(Oc4ncccn4)cc3oc2=O)c1F.[K+]` [Form 10], the hygroscopicity ([1]; DVS, 25° C.) is reported as “hygroscopic”, the “weight change between 0-90% RH” value ([1]; DVS, 25° C.) is reported as “about 5.5%” and the “solid form after DVS (XRPD)” value [1] is reported as “converted to Form 1”.
With `CNS(=O)(=O)Nc1nccc(Cc2c(C)c3ccc(Oc4ncccn4)cc3oc2=O)c1F` [Form 1] the hygroscopicity ([1]; DVS, 25° C.) was “slightly hygroscopic”, the “weight change between 0-90% RH” value ([1]; DVS, 25° C.) was “about 1.8%” and the “weight gain observed between 80-90% RH” value ([1]; DVS, 25° C.) was greater than 1%. For the same compound, the “solid form after DVS (XRPD)” value [1] was “no form change”, the “XRPD (Week 1)” value ([2]; 30° C./65% RH) was “Form 1” and the “Purity (Week 1)” value ([2]; 30° C./65% RH) was 99.2%. For the same compound, the “XRPD (Week 4)” value ([2]; 30° C./65% RH) was “Form 1”, the “Purity (Week 4)” value ([2]; 30° C./65% RH) was 99.2% and the “Water content (Week 5)” value ([2]; 30° C./65% RH) was 0.6%. For the same compound, the “purity determined by UPLC on storage” value ([2]; 40° C./75% RH or 30° C./65% RH, week 1 and week 4) was “remained statistically unchanged”, the “water content by KF on storage versus initial” value ([2]; 40° C./75% RH or 30° C./65% RH, week 5) was “consistent with initial water content” and the “XRPD (Week 1)” value ([2]; 40° C./75% RH) was “Form 1”. The “Purity (Week 1)” value ([2]; 40° C./75% RH) was 99.2%, the “XRPD (Week 4)” value ([2]; 40° C./75% RH) was “Form 1” and the “Purity (Week 4)” value ([2]; 40° C./75% RH) was 99.2%. For the same compound, the “Water content (Week 5)” value ([2]; 40° C./75% RH) was 0.5%.
For `CNS(=O)(=O)Nc1nccc(Cc2c(C)c3ccc(Oc4ncccn4)cc3oc2=O)c1F` [Form 8], the hygroscopicity ([1]; DVS, 25° C.) was “slightly hygroscopic”, the “weight change between 0-80% RH” value ([1]; DVS, 25° C., 0-80% RH) was “up to 0.44%” and the “weight gain observed between 80-90% RH” value ([1]; DVS, 25° C.) was greater than 0.27%. The “weight gain at above 80% RH” value ([1]; DVS, 25° C., above 80% RH) was “at least 1.12%” and the “solid form after DVS (XRPD)” value [1] was “converted to Form 1”.
